The structures appear in SMILES notation. Toxic doses and inconclusive results are not listed.

The test system of the test is BDF1 mice, intracerebral B16 melanoma, median survival T/C. The experiment in a line: NCI In Vivo Anticancer Drug Screen. Data for tumor model B16 Melanoma (intracerebral) in B6D2F1 (BDF1) mice. Conditions: endpoint: median survival time, higher = longer survival. The protocol:
The antitumor activity of compounds was measured in mice bearing transplantable tumors. Survival or tumor size were measured and the results are expressed as the measurement made in the treated group (T) divided by the measurement made in the vehicle treated control group (C). The tumor model used in this assay is B16 Melanoma (intracerebral) in B6D2F1 (BDF1) mice

Take `Cc1ccc2c(c1)Sc1ccc(N=NN(C)C)cc1N2C`: the T/C runs as follows: (dose: 6.25 mg/kg/injection, schedule: Q01DX009 (ip), vehicle: other) 101 % of control; (dose: 12.5 mg/kg/injection, schedule: Q01DX009 (ip), vehicle: other) 116 % of control; (dose: 25.0 mg/kg/injection, schedule: Q01DX009 (ip), vehicle: other) 98 % of control; (dose: 50.0 mg/kg/injection, schedule: Q01DX009 (ip), vehicle: other) 116 % of control; (dose: 100.0 mg/kg/injection, schedule: Q01DX009 (ip), vehicle: other) 112 % of control.

For the molecule `O=NN(CCF)C(=O)N[C@H]1CCCC[C@H]1O`, the T/C was 151 % of control (dose: 26.7 mg/kg/injection, schedule: Q01DX001 (ip), vehicle: Klucel (hydroxypropylcellulose) (HPC)); 155 % of control (dose: 40.0 mg/kg/injection, schedule: Q01DX001 (ip), vehicle: Klucel (hydroxypropylcellulose) (HPC)); 330 % of control (dose: 60.0 mg/kg/injection, schedule: Q01DX001 (ip), vehicle: Klucel (hydroxypropylcellulose) (HPC)).

Values taken from PubChem BioAssay AID196 (DTP/NCI, 2004).
